# PMC5889475 (Biochimie Open, 2015)
# Target: T1, His-GlNMNAT (GlNMNAT, GlNMNAT-A) (Giardia duodenalis, UniProt A8BW22)
# T1 sequence (A8BW22 1-227): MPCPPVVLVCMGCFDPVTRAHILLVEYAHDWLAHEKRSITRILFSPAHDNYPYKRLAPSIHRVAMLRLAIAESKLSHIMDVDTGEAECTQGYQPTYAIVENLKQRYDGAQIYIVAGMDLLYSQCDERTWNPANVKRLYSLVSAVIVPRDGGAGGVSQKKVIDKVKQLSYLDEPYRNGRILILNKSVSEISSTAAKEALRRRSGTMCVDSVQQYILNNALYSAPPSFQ
# Assay: C18-HPLC of NAAD formation
# Type: biochemical
# Details: ATP 10 mM; NAMN 0.25-12 mM
smiles,measurement,value
O=C([O-])c1ccc[n+]([C@@H]2O[C@H](COP(=O)(O)O)[C@@H](O)[C@H]2O)c1 [NAMN],C18-HPLC of NAAD formation,"for NAMN saturation was not observed, implying that the enzyme has low affinity yet detectable"
